This passage reports mutagenic call results from PubChem BioAssay AID1259407 (Chemical Carcinogenesis Research Information System (CCRIS), 2018).

Each structure is given as a SMILES string. Calls of active or inactive are those of the source. No rule for the calls is given here.

This data set concerns CCRIS mutagenicity, Ames/micronucleus/aberration tests. In words: CCRIS mutagenicity studies.
Setting [1] is: Test System: AMES SALMONELLA TYPHIMURIUM, Strain/Indicator: TA98, Metabolic Activation: NONE, Method: PREINCUBATION
Setting [2] is: Test System: AMES SALMONELLA TYPHIMURIUM, Strain/Indicator: TA98, Metabolic Activation: RAT, LIVER, S-9, AROCLOR 1254, Method: PREINCUBATION
Setting [3] is: Test System: AMES SALMONELLA TYPHIMURIUM, Strain/Indicator: TA100, Metabolic Activation: NONE, Method: PREINCUBATION
Setting [4] is: Test System: AMES SALMONELLA TYPHIMURIUM, Strain/Indicator: TA100, Metabolic Activation: RAT, LIVER, S-9, AROCLOR 1254, Method: PREINCUBATION
The mark [5] stands for this setting: Test System: AMES SALMONELLA TYPHIMURIUM, Strain/Indicator: TA1535, Metabolic Activation: NONE, Method: PREINCUBATION
The mark [6] stands for this setting: Test System: AMES SALMONELLA TYPHIMURIUM, Strain/Indicator: TA1537, Metabolic Activation: NONE, Method: PREINCUBATION
[7] abbreviates: Test System: AMES SALMONELLA TYPHIMURIUM, Strain/Indicator: TA1537, Metabolic Activation: NONE, Method: STANDARD PLATE.
The mark [8] stands for this setting: Test System: AMES SALMONELLA TYPHIMURIUM, Strain/Indicator: TA98, Metabolic Activation: NONE, Method: STANDARD PLATE.
Where [9] appears, read: Test System: AMES SALMONELLA TYPHIMURIUM, Strain/Indicator: TA98, Metabolic Activation: RAT, LIVER, S-9, AROCLOR 1254, Method: STANDARD PLATE.
The mark [10] stands for this setting: Test System: AMES SALMONELLA TYPHIMURIUM, Strain/Indicator: TA100, Metabolic Activation: NONE, Method: STANDARD PLATE.
Setting [11] is: Test System: AMES SALMONELLA TYPHIMURIUM, Strain/Indicator: TA100, Metabolic Activation: RAT, LIVER, S-9, AROCLOR 1254, Method: STANDARD PLATE.
[12] abbreviates: Test System: AMES SALMONELLA TYPHIMURIUM, Strain/Indicator: TA1537, Metabolic Activation: RAT, LIVER, S-9, AROCLOR 1254, Method: STANDARD PLATE.

As for `Clc1ccccc1`, the mutagenic call (End Point: IN VITRO CHROMOSOMAL ABERRATIONS, Test System: CHO CELLS, Metabolic Activation: NONE) was “inactive; negative”; the mutagenic call (End Point: IN VITRO CHROMOSOMAL ABERRATIONS, Test System: CHO CELLS, Metabolic Activation: RAT, LIVER, S-9, AROCLOR 1254) is “inactive; negative; previous trial yielded a positive response at 150 ug/ml but no dose-re”; the mutagenic call (Test System: AMES SALMONELLA TYPHIMURIUM, Strain/Indicator: TA98, Metabolic Activation: HAMSTER, LIVER, S-9, AROCLOR 1254, Method: PREINCUBATION) was “inactive; negative”; the mutagenic call under setting [1] was “inactive; negative”; the mutagenic call under setting [2] is “inactive; negative”; the mutagenic call (Test System: AMES SALMONELLA TYPHIMURIUM, Strain/Indicator: TA100, Metabolic Activation: HAMSTER, LIVER, S-9, AROCLOR 1254, Method: PREINCUBATION) is “inactive; negative”. Besides, the mutagenic call reads like this: under setting [3], “inactive; negative”; under setting [4], “inactive; negative”; (Test System: AMES SALMONELLA TYPHIMURIUM, Strain/Indicator: TA1535, Metabolic Activation: HAMSTER, LIVER, S-9, AROCLOR 1254, Method: PREINCUBATION) “inactive; negative”; under setting [5], “inactive; negative”; (Test System: AMES SALMONELLA TYPHIMURIUM, Strain/Indicator: TA1535, Metabolic Activation: RAT, LIVER, S-9, AROCLOR 1254, Method: PREINCUBATION) “inactive; negative”; (Test System: AMES SALMONELLA TYPHIMURIUM, Strain/Indicator: TA1537, Metabolic Activation: HAMSTER, LIVER, S-9, AROCLOR 1254, Method: PREINCUBATION) “inactive; negative”. Besides, the mutagenic call under setting [6] is “inactive; negative” and the mutagenic call (Test System: AMES SALMONELLA TYPHIMURIUM, Strain/Indicator: TA1537, Metabolic Activation: RAT, LIVER, S-9, AROCLOR 1254, Method: PREINCUBATION) is “inactive; negative”.
As to `CS(=O)(=O)Nc1ccc(Nc2c3ccc(N=[N+]=[N-])cc3nc3ccc(N=[N+]=[N-])cc23)cc1`, the mutagenic call under setting [7] is “inactive; negative”.
With `CN(N=O)C(=O)Oc1cccc2c1OC(C)(C)C2`, where the note is “End Point: IN VIVO MICRONUCLEUS, Test System: BONE MARROW POLYCHROMATIC ERYTHROCYTES, Species: MOUSE, Strain/Sex: KM/MALE, FEMALE, Route: IP INJECTION”, the mutagenic call was “active; positive”.
`O=[N+]([O-])c1cc2c(ccc3ccccc32)c2c1C=C[C@H](O)[C@H]2O`: the mutagenic call reads like this: under setting [1], “active; positive”; under setting [2], “inactive; negative”; under setting [3], “active; positive”; under setting [4], “active; positive”.
Consider `C[C@@H]1O[C@@H](OC[C@H]2O[C@@H](Oc3c(-c4ccc(OCCO)c(OCCO)c4)oc4cc(OCCO)cc(O)c4c3=O)[C@H](O)[C@@H](O)[C@@H]2O)[C@H](O)[C@H](O)[C@H]1O`, for which the mutagenic call under setting [8] is “inactive; negative”; the mutagenic call under setting [9] was “inactive; negative”; the mutagenic call under setting [10] was “inactive; negative”; the mutagenic call under setting [11] is “inactive; negative”; the mutagenic call (Test System: AMES SALMONELLA TYPHIMURIUM, Strain/Indicator: TA1535, Metabolic Activation: NONE, Method: STANDARD PLATE) was “inactive; negative”; the mutagenic call (Test System: AMES SALMONELLA TYPHIMURIUM, Strain/Indicator: TA1535, Metabolic Activation: RAT, LIVER, S-9, AROCLOR 1254, Method: STANDARD PLATE) is “inactive; negative”. Moreover, the mutagenic call is “inactive; negative” under setting [7]; “inactive; negative” under setting [12]; “inactive; negative” (Test System: AMES SALMONELLA TYPHIMURIUM, Strain/Indicator: TA1538, Metabolic Activation: NONE, Method: STANDARD PLATE); “inactive; negative” (Test System: AMES SALMONELLA TYPHIMURIUM, Strain/Indicator: TA1538, Metabolic Activation: RAT, LIVER, S-9, AROCLOR 1254, Method: STANDARD PLATE).
As for `COc1ccc(CN(CCN(C)C)c2ncccn2)cc1`, the mutagenic call is, setting by setting: (Test System: AMES SALMONELLA TYPHIMURIUM, Strain/Indicator: TA98, Metabolic Activation: HAMSTER, LIVER, S-9, AROCLOR 1254 (10%), Method: PREINCUBATION) “inactive; negative”; under setting [1], “inactive; negative”; (Test System: AMES SALMONELLA TYPHIMURIUM, Strain/Indicator: TA98, Metabolic Activation: RAT, LIVER, S-9, AROCLOR 1254 (10%), Method: PREINCUBATION) “inactive; negative”; (Test System: AMES SALMONELLA TYPHIMURIUM, Strain/Indicator: TA100, Metabolic Activation: HAMSTER, LIVER, S-9, AROCLOR 1254 (10%), Method: PREINCUBATION) “inactive; negative”; under setting [3], “inactive; negative”; (Test System: AMES SALMONELLA TYPHIMURIUM, Strain/Indicator: TA100, Metabolic Activation: RAT, LIVER, S-9, AROCLOR 1254 (10%), Method: PREINCUBATION) “inactive; negative”. Also, the mutagenic call (Test System: AMES SALMONELLA TYPHIMURIUM, Strain/Indicator: TA1535, Metabolic Activation: HAMSTER, LIVER, S-9, AROCLOR 1254 (10%), Method: PREINCUBATION) is “inactive; negative”; the mutagenic call under setting [5] was “inactive; negative”; the mutagenic call (Test System: AMES SALMONELLA TYPHIMURIUM, Strain/Indicator: TA1535, Metabolic Activation: RAT, LIVER, S-9, AROCLOR 1254 (10%), Method: PREINCUBATION) is “inactive; negative”; the mutagenic call (Test System: AMES SALMONELLA TYPHIMURIUM, Strain/Indicator: TA1537, Metabolic Activation: HAMSTER, LIVER, S-9, AROCLOR 1254 (10%), Method: PREINCUBATION) was “inactive; negative”; the mutagenic call under setting [6] is “inactive; negative”; the mutagenic call (Test System: AMES SALMONELLA TYPHIMURIUM, Strain/Indicator: TA1537, Metabolic Activation: RAT, LIVER, S-9, AROCLOR 1254 (10%), Method: PREINCUBATION) was “inactive; negative”.
As for `C1CCC2OCCOCCOCCOCCOC3CCCCC3OCCOCCOCCOCCOC2C1` (stereo not given), the mutagenic call by setting is: under setting [8], “inactive; negative”; under setting [9], “inactive; negative”; under setting [10], “inactive; negative”; under setting [11], “inactive; negative”; (Test System: AMES SALMONELLA TYPHIMURIUM, Strain/Indicator: TA1530, Metabolic Activation: NONE, Method: STANDARD PLATE) “inactive; negative”; (Test System: AMES SALMONELLA TYPHIMURIUM, Strain/Indicator: TA1530, Metabolic Activation: RAT, LIVER, S-9, AROCLOR 1254, Method: STANDARD PLATE) “inactive; negative”. Besides, the mutagenic call by setting is: under setting [7], “inactive; negative”; under setting [12], “inactive; negative”.
